“And” between values parts separate entries of the source, which are not always exact repeats. Identical values can stand only once. Like-named read-outs stand apart in the source and are kept apart here.
How the values were obtained:
[1] = system: rat left phrenic nerve-diaphragm preparation
[2] = system: rat left phrenic nerve-diaphragm preparation; remark: listed apart in the source
[3] = system: rat left phrenic nerve-diaphragm preparation; remark: listed apart in the source
[4] = system: anesthetized/ventilated rat; settings: in vivo
[5] = system: anesthetized rabbit; settings: in vivo, iv

In the case of `C[C@@H]1O[C@H](C[N+](C)(C)C)C[C@H]1O` (racemic) [Muscarine, (±)-Muscarine chloride hydrate], the “effect on force and maximal rate of change” value [1] is reported as “minimal or slight reduction of force, and maximal rate of change”, the “Contraction Amplitude, Raw Values” ([1]; hydrate) is reported as 14.5 ± 1.4 g and 13.5 ± 1.2 g and 13.3 ± 1.2 g and 13.5 ± 1.3 g and the “Max Rate of Change, Raw Values” ([1]; hydrate) is reported as 341 ± 45 g/s and 314 ± 45 g/s and 321 ± 41 g/s and 329 ± 39 g/s.

`CN(C)C(=O)Oc1cccc([N+](C)(C)C)c1` [Neostigmine] was tested, and the “Contraction Amplitude, Neostigmine with d-tubocurarine Raw Values” [2] was 5.9 ± 0.8 g and 5.2 ± 0.6 g and 4.7 ± 1.2 g, the “Max Rate of Change, Neostigmine with d-tubocurarine Raw Values” [2] was 141 ± 30 g/s and 131 ± 21 g/s and 108 ± 39 g/s and the “Contraction Amplitude, Raw Values” [3] was 6.3 ± 0.5 g. The “Contraction Amplitude, Δ from 50% reduction with MMB4” value [3] was 0.6 g and 0.6 ± 0.1 g, the “Max Rate of Change, Raw Values” [3] was 153 ± 12 g/s and the “Max Rate of Change, Δ from 50% reduction with MMB4” value [3] was 20 ± 4 g/s.

In the case of pralidoxime chloride [2-PAM], the “effect on diaphragmatic function” value [4] is reported as “depression”.

In the case of `CS(=O)(=O)[O-].[Na+]` [Sodium Methanesulfonate], the “Contraction Amplitude, Raw Values” [1] is reported as 9.1 ± 0.8 g and 8.9 ± 0.8 g and 8.6 ± 0.8 g and 8.2 ± 0.7 g, the “Max Rate of Change, Raw Values” [1] is reported as 211 ± 48 g/s and 214 ± 48 g/s and 210 ± 48 g/s and 197 ± 45 g/s and the effect on function [1] is reported as “minimal effect on function”.

For `CN1CCC[C@H]1c1cccnc1` [Nicotine, (−)-Nicotine detartrate], the “Contraction Amplitude, Raw Values” [1] was 10.8 ± 3.2 g and 9.7 ± 2.6 g, the “Max Rate of Change, Raw Values” [1] was 229 ± 97 g/s and 225 ± 102 g/s and 201 ± 94 g/s and the effect on contraction [1] was “depressed contraction”. The “effect on contraction and maximal rate of change” value [1] was “positive effect”.

In the case of `COc1cc2c3cc1Oc1cc(ccc1O)C[C@@H]1c4c(cc(OC)c(O)c4Oc4ccc(cc4)C[C@@H]3N(C)CC2)CC[N+]1(C)C` [d-tubocurarine, d-tubocurarine chloride hydrate], the “Contraction Amplitude, Raw Values” [2] is reported as 5.2 ± 0.8 g, the “Max Rate of Change, Raw Values” [2] is reported as 106 ± 22 g/s and the “Contraction Amplitude, d-tubocurarine Raw Values” ([2]; hydrate) is reported as 5.2 ± 0.9 g and 4.3 ± 0.5 g and 4.4 ± 1.1 g. The “Max Rate of Change, d-tubocurarine Raw Values” ([2]; hydrate) was 119 ± 31 g/s and 101 ± 20 g/s and 101 ± 35 g/s.

With Cisatracurium (Besilate salt) the “Diaphragmatic Force” value [5] was 5.4 ± 1.0 g, the “Diaphragmatic Force relative change from baseline” value [5] was −77 ± 6% and the HR [5] was 282 ± 7 bpm. For the same compound, the “HR relative change from baseline” value [5] was 0 ± 1%, the ITP [5] was 15.1 ± 0.6 mmHg and the “ITP relative change from baseline” value [5] was 7 ± 4%. The LVEDP [5] was 7.6 ± 1.1 mmHg, the “LVEDP relative change from baseline” value [5] was 17 ± 8% and the LVdP/dtmax [5] was 2760 ± 246 mmHg/s. For the same compound, the “LVdP/dtmax relative change from baseline” value [5] was −6 ± 3%, the MAP [5] was 63 ± 6 mmHg and the “MAP relative change from baseline” value [5] was −3 ± 3%. For the same compound, the “Skeletal Force” value [5] was 1.1 ± 0.5 g, the “Skeletal Force relative change from baseline” value [5] was −86 ± 5% and the tau [5] was 8.7 ± 0.2 ms. For the same compound, the “tau relative change from baseline” value [5] was 0 ± 1%, the “effect on cardiovascular function” value ([5]; 0.1 mg/kg) was “negligible effects in cardiovascular function” and the “effect on skeletal and diaphragmatic contractions” value ([5]; 0.1 mg/kg) was “reversible inhibition of skeletal and diaphragmatic contractions”.
